Data taken from the NIST ThermoML archive (doi:10.1016/j.jct.2019.04.018).
± gives the expanded uncertainty stated by the source.

Experiment: xn = mol fraction of the nth substance listed
Conditions: 100 kPa, Liquid; for viscosity: Capillary tube (Ostwald / Ubbelohde) method; for speed of sound: Frequency=2 MHz, Single path-length method; for mass density: Vibrating tube method

C=COC(C)=O [vinyl acetate] + CC(C)OC(C)C
Conditions | mass density, 303.15 K [kg/m3] | mass density, 308.15 K [kg/m3] | mass density, 313.15 K [kg/m3] | speed of sound, 303.15 K [m/s] | speed of sound, 308.15 K [m/s] | speed of sound, 313.15 K [m/s] | viscosity, 303.15 K [mPa·s] | viscosity, 308.15 K [mPa·s] | viscosity, 313.15 K [mPa·s]
x1 = 0.1031 | 727.4 ± 1.2 | 722.1 ± 1.2 | 716.5 ± 1.2 | 990 ± 6 | 970 ± 6 | 948 ± 6 | 0.308 ± 0.014 | 0.293 ± 0.014 | 0.28 ± 0.014
x1 = 0.1977 | 741.4 ± 1.1 | 736 ± 1.1 | 730.4 ± 1.1 | 996 ± 6 | 976 ± 6 | 955 ± 6 | 0.313 ± 0.014 | 0.297 ± 0.014 | 0.284 ± 0.014
x1 = 0.3004 | 757.8 ± 1.1 | 752.3 ± 1.1 | 746.6 ± 1.1 | 1004 ± 6 | 985 ± 6 | 964 ± 6 | 0.318 ± 0.014 | 0.302 ± 0.014 | 0.288 ± 0.014
x1 = 0.4002 | 775 ± 1.1 | 769.4 ± 1.1 | 763.7 ± 1.1 | 1013 ± 6 | 993 ± 6 | 972 ± 6 | 0.324 ± 0.014 | 0.307 ± 0.014 | 0.294 ± 0.014
x1 = 0.5001 | 793.8 ± 1.1 | 788.1 ± 1.1 | 782.3 ± 1.1 | 1022 ± 5 | 1002 ± 5 | 982 ± 5 | 0.33 ± 0.014 | 0.313 ± 0.014 | 0.299 ± 0.014
x1 = 0.6027 | 814.8 ± 1.1 | 809.1 ± 1.1 | 803.2 ± 1.1 | 1032 ± 5 | 1012 ± 5 | 992 ± 5 | 0.338 ± 0.014 | 0.32 ± 0.014 | 0.306 ± 0.014
x1 = 0.7001 | 836.9 ± 1.1 | 831 ± 1.1 | 825 ± 1.1 | 1042 ± 5 | 1024 ± 5 | 1003 ± 5 | 0.347 ± 0.014 | 0.329 ± 0.014 | 0.313 ± 0.014
x1 = 0.801 | 861.9 ± 1.1 | 856 ± 1.1 | 849.8 ± 1.1 | 1056 ± 5 | 1038 ± 5 | 1016 ± 5 | 0.359 ± 0.014 | 0.34 ± 0.014 | 0.323 ± 0.014
x1 = 0.9014 | 889.5 ± 1.1 | 883.5 ± 1.1 | 877.2 ± 1.1 | 1072 ± 5 | 1053 ± 5 | 1032 ± 5 | 0.372 ± 0.014 | 0.353 ± 0.014 | 0.335 ± 0.014
x1 = 1 | 919.4 ± 1.1 | 913.5 ± 1.1 | 907.3 ± 1.1 | 1092 ± 5 | 1074 ± 5 | 1054 ± 5 | 0.388 ± 0.014 | 0.37 ± 0.014 | 0.352 ± 0.014
